Results as given in ChEMBL document CHEMBL2203171, “The use of small molecule probes to study spatially separated stimulus-induced signaling pathways” (Bioorg Med Chem Lett, 2012).
Active and inactive are the calls of the source.

Tests used:
Type in all cases: cell-based
[1] = target: T1, Inhibitor of nuclear factor kappa-B kinase subunit beta (Mus musculus) (UniProt O88351); assay: Inhibition of IKKbeta in C57BL/6 mouse BMDM cells assessed as inhibition of TNFalpha-induced IkappaBalpha degradation at 50 uM up to 90 mins by Western blot analysis
T1 sequence (whole entry): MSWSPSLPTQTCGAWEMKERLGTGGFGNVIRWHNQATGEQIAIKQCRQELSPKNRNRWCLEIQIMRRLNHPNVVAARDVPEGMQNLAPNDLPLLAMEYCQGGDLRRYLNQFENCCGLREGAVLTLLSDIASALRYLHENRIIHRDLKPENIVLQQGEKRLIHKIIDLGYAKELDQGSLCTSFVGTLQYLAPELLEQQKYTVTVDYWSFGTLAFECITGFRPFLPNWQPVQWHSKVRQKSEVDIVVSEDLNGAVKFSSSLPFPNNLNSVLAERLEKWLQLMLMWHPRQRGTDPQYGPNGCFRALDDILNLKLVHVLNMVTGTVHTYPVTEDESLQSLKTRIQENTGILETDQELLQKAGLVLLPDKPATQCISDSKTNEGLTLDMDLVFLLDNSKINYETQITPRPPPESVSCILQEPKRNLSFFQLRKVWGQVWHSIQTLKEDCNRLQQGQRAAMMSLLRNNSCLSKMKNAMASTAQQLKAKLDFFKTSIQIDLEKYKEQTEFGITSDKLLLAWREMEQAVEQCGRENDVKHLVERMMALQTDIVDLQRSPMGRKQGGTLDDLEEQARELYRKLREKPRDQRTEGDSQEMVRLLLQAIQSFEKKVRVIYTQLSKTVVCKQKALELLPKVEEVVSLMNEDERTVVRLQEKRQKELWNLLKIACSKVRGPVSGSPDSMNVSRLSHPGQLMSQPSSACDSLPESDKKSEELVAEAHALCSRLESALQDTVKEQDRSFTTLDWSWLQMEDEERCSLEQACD

[2] = target: T1, Inhibitor of nuclear factor kappa-B kinase subunit beta (Mus musculus); assay: Inhibition of IKKbeta in C57BL/6 mouse BMDM cells assessed as inhibition of TNFalpha-induced IkappaBalpha phosphorylation at 50 uM up to 90 mins by Western blot analysis
[3] = target: T2, MAP kinase p38 (Mus musculus) (UniProt P47811+O08911+Q9WUI1+Q9Z1B7); assay: Inhibition of MAPK p38 in C57BL/6 mouse BMDM cells assessed as inhibition of TNFalpha-induced phosphorylation at 50 uM up to 90 mins by Western blot analysis
[4] = target: T1, Inhibitor of nuclear factor kappa-B kinase subunit beta (Mus musculus); assay: Inhibition of IKKbeta in C57BL/6 mouse BMDM cells assessed as inhibition of LPS-induced IkappaBalpha degradation at 50 uM up to 90 mins by Western blot analysis
[5] = target: T1, Inhibitor of nuclear factor kappa-B kinase subunit beta (Mus musculus); assay: Inhibition of IKKbeta in C57BL/6 mouse BMDM cells assessed as inhibition of LPS-induced IkappaBalpha phosphorylation at 50 uM up to 90 mins by Western blot analysis
[6] = target: T2, MAP kinase p38 (Mus musculus); assay: Inhibition of MAPK p38 in C57BL/6 mouse BMDM cells assessed as inhibition of LPS-induced phosphorylation at 50 uM up to 90 mins by Western blot analysis

COc1ccc(-c2ccc(C(C(=O)NC(C)(C)C)N(C(=O)CCc3ccc(O)c(O)c3)C(C)(C)C)cc2)cc1 (configuration not stated)
inactive: inhibition [1] | inhibition [2] | inhibition [3] | inhibition (active/not active) [4] | inhibition of IkappaBalpha phosphorylation (active/not active) [5] | inhibition [6]

COc1ccc(C(=O)N(Cc2ccccn2)C(C(=O)NC(C)(C)C)c2ccc(-c3ccc(OC)cc3)cc2)cc1 (configuration not stated)
inactive: inhibition [1] | inhibition [2] | inhibition [3] | inhibition (active/not active) [4] | inhibition of IkappaBalpha phosphorylation (active/not active) [5] | inhibition [6]
